Results on three compounds are retold here after paper PMC9007972, “Structural and biochemical evidence that ATP inhibits the cancer biomarker human aldehyde dehydrogenase 1A3” (Communications Biology, 2022).

Assay [1] addresses T1, ALDH1A3 (Homo sapiens, UniProt P47895).
T1 sequence (P47895 2-512): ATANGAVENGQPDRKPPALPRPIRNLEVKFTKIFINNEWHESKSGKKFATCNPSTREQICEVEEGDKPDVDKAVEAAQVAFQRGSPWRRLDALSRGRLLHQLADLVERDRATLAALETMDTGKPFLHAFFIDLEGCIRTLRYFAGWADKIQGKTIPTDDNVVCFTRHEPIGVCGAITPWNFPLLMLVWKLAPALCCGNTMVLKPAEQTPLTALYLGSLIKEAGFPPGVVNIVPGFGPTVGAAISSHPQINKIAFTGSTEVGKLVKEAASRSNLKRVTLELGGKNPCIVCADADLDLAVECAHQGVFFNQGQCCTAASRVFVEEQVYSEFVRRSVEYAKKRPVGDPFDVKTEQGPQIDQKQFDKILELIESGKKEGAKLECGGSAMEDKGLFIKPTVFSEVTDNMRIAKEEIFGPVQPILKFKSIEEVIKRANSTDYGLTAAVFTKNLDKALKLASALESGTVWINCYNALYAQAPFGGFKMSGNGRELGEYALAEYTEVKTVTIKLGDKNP
As to the kind of experiment: dehydrogenase activity with hexanal, […] ADP (remaining activity). The assay is classed as biochemical. Further details: His6-tagged, pET-30 Xa/LIC. Conditions: read-out: % remaining activity at 0.5 mM.

In assay [2] the target is T1, ALDH1A3. Description: X-ray crystal structure ([…] Å); Km from enzyme kinetics without Mg2+. Further details: His6-tagged, pET-30 Xa/LIC. The class given is biochemical.
The next assay has as its target T2, ALDH3A1 (Homo sapiens, UniProt P30838).
T2 construct: His6-tagged, pET-30 Xa/LIC
T2 sequence (P30838 2-453): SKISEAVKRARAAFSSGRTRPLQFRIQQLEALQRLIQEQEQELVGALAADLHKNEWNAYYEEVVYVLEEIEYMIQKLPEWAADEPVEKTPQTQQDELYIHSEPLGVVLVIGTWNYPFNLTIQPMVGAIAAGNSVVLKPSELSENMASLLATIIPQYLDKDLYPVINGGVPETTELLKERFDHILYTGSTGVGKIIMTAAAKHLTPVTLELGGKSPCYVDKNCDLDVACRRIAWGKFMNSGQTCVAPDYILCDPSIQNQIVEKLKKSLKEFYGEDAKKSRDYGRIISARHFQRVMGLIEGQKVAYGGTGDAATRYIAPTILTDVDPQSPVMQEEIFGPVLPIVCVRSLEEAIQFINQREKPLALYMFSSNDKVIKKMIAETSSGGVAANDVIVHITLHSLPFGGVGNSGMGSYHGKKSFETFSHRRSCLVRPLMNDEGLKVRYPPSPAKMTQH
Description: fluorimetric dehydrogenase assay with hexanal, […] ATP. The assay is classed as biochemical. To be noted: read-out: % remaining activity at 2 mM.

The target in a further assay is T3, ALDH1A2 (Homo sapiens, UniProt O94788).
T3 construct: His6-tagged, pET-30 Xa/LIC
T3 sequence (O94788 1-518): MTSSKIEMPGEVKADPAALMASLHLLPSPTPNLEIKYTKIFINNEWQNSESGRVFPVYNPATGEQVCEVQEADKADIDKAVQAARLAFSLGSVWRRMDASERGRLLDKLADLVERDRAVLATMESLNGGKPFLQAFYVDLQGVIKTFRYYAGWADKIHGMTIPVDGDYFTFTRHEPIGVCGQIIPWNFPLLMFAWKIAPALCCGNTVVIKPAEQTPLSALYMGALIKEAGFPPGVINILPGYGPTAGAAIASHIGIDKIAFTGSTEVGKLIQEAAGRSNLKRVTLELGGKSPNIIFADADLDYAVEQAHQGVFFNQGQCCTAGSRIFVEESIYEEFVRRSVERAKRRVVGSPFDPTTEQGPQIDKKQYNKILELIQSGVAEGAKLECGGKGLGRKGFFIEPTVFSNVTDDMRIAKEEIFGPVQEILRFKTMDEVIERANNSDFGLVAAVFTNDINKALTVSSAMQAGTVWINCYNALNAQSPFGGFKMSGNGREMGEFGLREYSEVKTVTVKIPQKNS
The description is as above. The class given is biochemical. To be noted: read-out: % remaining activity at 2 mM.

The target in another assay is T4, ALDH1A1 (Homo sapiens, UniProt P00352).
T4 construct: His6-tagged, pET-30 Xa/LIC
T4 sequence (P00352 2-501): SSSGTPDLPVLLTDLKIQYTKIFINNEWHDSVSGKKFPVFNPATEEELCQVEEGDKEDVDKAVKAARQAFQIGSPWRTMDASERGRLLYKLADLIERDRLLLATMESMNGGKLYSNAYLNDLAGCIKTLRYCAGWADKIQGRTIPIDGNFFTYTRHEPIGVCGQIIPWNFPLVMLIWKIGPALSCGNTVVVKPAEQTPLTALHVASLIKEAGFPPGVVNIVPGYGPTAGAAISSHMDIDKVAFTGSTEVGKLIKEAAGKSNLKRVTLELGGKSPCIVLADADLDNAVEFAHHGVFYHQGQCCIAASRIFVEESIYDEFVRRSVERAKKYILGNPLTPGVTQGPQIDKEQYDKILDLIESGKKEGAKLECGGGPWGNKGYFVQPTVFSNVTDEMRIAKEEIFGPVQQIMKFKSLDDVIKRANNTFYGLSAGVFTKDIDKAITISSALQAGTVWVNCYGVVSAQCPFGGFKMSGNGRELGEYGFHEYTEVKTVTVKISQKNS
The assay is described as above. Conditions: read-out: % remaining activity at 2 mM. The assay is classed as biochemical.

The target of assay [3] is T1, ALDH1A3. Description: biochemical.

In general, remaining activity refers to the signal under treatment as a percentage of the control signal. Turning to `Nc1ncnc2c1ncn2[C@@H]1O[C@H](COP(=O)(O)OP(=O)(O)O)[C@@H](O)[C@H]1O` [ADP], the remaining activity at 500 µM at ALDH1A3 [1] turned out to be 56 ± 4%.
The term Km denotes the substrate concentration at which the rate is half of its maximum. For the compound `NC(=O)c1ccc[n+]([C@@H]2O[C@H](COP(=O)([O-])OP(=O)(O)OC[C@H]3O[C@@H](n4cnc5c(N)ncnc54)[C@H](O)[C@@H]3O)[C@@H](O)[C@H]2O)c1` [NAD^+], the Km on ALDH1A3 [2] came to 24 ± 2 µM.
Usually Ki stands for the equilibrium dissociation constant of an inhibitor or competing ligand from its target. Consider `Nc1ncnc2c1ncn2[C@@H]1O[C@H](CO[P@@](=O)(O)O[P@](=O)(O)OP(=O)(O)O)[C@@H](O)[C@H]1O` [ATP], for which the remaining activity at 2000 µM at ALDH3A1 is 25 ± 1%; on ALDH1A2, 68 ± 2%; at ALDH1A1, 43 ± 1%. At ALDH1A3 [3], this compound showed a Ki of 480 ± 80 µM.
